Patent US11524966B1 (Valo Early Discovery, Inc., priority 2017, dated 2022)

What follows are compounds tested against T1, USP28 (USP28-5(1-1077)-TEV-6*His; LifeSensors) (Homo sapiens, UniProt Q96RU2) (assay: Ubiquitin-Rhodamine 110 Assay for USP28 Activity, Example A-1(b)). Conditions: Ubiquitin-Rhodamine 110 assay, Example A-1(b).
T1 construct: construct USP28 (USP28-5(1-1077)-TEV-6*His; LifeSensors); TEV cleavage site (C); 6xHis (C); purchased LifeSensors
T1 sequence (Q96RU2 1-1077): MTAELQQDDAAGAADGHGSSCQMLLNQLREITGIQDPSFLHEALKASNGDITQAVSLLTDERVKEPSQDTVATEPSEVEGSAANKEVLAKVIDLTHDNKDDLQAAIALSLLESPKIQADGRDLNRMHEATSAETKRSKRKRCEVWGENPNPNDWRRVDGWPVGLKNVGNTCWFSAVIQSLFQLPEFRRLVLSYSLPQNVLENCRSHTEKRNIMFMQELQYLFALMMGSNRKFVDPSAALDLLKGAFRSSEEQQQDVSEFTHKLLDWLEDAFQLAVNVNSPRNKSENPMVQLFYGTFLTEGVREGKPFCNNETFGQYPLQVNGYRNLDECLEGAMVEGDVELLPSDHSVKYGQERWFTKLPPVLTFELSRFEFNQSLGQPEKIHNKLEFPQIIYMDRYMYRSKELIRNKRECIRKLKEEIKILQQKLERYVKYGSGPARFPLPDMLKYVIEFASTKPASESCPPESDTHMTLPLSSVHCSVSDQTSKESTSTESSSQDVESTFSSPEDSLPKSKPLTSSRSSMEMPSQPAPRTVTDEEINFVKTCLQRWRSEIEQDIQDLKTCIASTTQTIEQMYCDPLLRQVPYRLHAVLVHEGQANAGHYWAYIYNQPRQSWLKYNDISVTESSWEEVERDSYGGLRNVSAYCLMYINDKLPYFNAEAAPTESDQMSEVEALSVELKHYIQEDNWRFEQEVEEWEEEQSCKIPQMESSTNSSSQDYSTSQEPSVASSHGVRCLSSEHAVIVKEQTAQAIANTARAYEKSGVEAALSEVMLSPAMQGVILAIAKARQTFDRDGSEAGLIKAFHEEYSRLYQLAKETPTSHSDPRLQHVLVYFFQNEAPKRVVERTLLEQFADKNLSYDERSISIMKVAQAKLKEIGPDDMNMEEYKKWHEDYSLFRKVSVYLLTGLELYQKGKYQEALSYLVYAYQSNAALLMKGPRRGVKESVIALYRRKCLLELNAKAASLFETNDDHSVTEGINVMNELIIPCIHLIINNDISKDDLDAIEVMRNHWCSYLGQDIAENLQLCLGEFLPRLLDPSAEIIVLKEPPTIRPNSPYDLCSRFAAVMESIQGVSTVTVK
Format: biochemical
Method in brief: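 Single-point screening used 10 μM compound with 90 min room-temperature incubation; follow-up dose-responses (25 μM top, 3-fold) used 75 pM USP28 1-1077 construct, 30 min compound preincubation, 25 nM Ub-Rh110, 20 min reaction, citric acid quench. Rh110 fluorescence normalised to no-enzyme and DMSO controls; IC50 from 4-parameter logistic fit.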

Row | SMILES | USP28 A-1(b) IC50 range
1 | Cc1cnc2c(N)c(C(=O)N[C@H]3CCc4cc(N5CCNC[C@@H](O)C5)ccc4C3)sc2n1 (single isomer, unassigned) [Example 7-4] | ++ (0.2-2 μM)
2 | Cc1cnc2c(N)c(C(=O)N[C@@H]3CCc4cc(N5CCNC[C@@H](O)C5)ccc4C3)sc2n1 (single isomer, unassigned) [Example 7-5] | ++ (0.2-2 μM)
3 | Cc1cnc2c(N)c(C(=O)N[C@H]3CCc4cc(N5CCNC[C@H](O)C5)ccc4C3)sc2n1 (single isomer, unassigned) [Example 7-6] | ++ (0.2-2 μM)
4 | Cc1cnc2c(N)c(C(=O)N[C@@H]3CCc4cc(N5CCNC[C@H](O)C5)ccc4C3)sc2n1 (single isomer, unassigned) [Example 7-7] | + (>2 μM)
5 | Cc1ccc2c(N)c(C(=O)N[C@H]3CCc4cc(N5CCN[C@H](CO)C5)ccc4C3)sc2n1 (single isomer, unassigned) [Example 7-8] | + (>2 μM)
6 | Cc1ccc2c(N)c(C(=O)N[C@H]3CCc4cc(N5CCN[C@@H](CO)C5)ccc4C3)sc2n1 (single isomer, unassigned) [Example 7-9] | + (>2 μM)
7 | Cc1ccc2c(N)c(C(=O)N[C@@H]3CCc4cc(N5CCN[C@H](CO)C5)ccc4C3)sc2n1 (single isomer, unassigned) [Example 7-10] | ++ (0.2-2 μM)
8 | Cc1ccc2c(N)c(C(=O)N[C@@H]3CCc4cc(N5CCN[C@@H](CO)C5)ccc4C3)sc2n1 (single isomer, unassigned) [Example 7-11] | ++ (0.2-2 μM)
9 | Cc1ccc2c(N)c(C(=O)N[C@H]3COc4cc(O[C@@H]5COC6(CNC6)C5)ccc4C3)sc2n1 (single isomer, unassigned) [Example 9-1] | +++ (0.05-0.2 μM)
10 | Cc1ccc2c(N)c(C(=O)N[C@H]3COc4cc(O[C@H]5COC6(CNC6)C5)ccc4C3)sc2n1 (single isomer, unassigned) [Example 9-2] | +++ (0.05-0.2 μM)
11 | Cc1nc2sc(C(=O)N[C@H]3CCc4cc(N5CC6CCC(C5)N6)ccc4C3)c(N)c2cc1F (single isomer, unassigned) [Example 11-3] | ++ (0.2-2 μM)
12 | Cc1nc2sc(C(=O)N[C@@H]3CCc4cc(N5CC6CCC(C5)N6)ccc4C3)c(N)c2cc1F (single isomer, unassigned) [Example 11-4] | +++ (0.05-0.2 μM)
13 | COc1ccc2c(N)c(C(=O)N[C@H]3CCc4cc(N5CC6CCC(C5)N6)ccc4C3)sc2n1 (single isomer, unassigned) [Example 11-5] | ++ (0.2-2 μM)
14 | COc1ccc2c(N)c(C(=O)N[C@@H]3CCc4cc(N5CC6CCC(C5)N6)ccc4C3)sc2n1 (single isomer, unassigned) [Example 11-6] | + (>2 μM)
15 | Cc1cnc2c(N)c(C(=O)N[C@H]3CCc4cc(N5CC6CCC(C5)N6)ccc4C3)sc2n1 (single isomer, unassigned) [Example 11-7] | ++ (0.2-2 μM)
16 | Cc1cnc2c(N)c(C(=O)N[C@@H]3CCc4cc(N5CC6CCC(C5)N6)ccc4C3)sc2n1 (single isomer, unassigned) [Example 11-8] | + (>2 μM)
17 | CCn1ccc2cc(C(=O)N[C@H]3CCc4cc(N5CC6CCC(C5)N6)ccc4C3)cnc21 (single isomer, unassigned) [Example 11-9] | + (>2 μM)
18 | CCn1ccc2cc(C(=O)N[C@@H]3CCc4cc(N5CC6CCC(C5)N6)ccc4C3)cnc21 (single isomer, unassigned) [Example 11-10] | ++ (0.2-2 μM)
19 | Cc1ccc2c(N)c(C(=O)N[C@H]3CCc4cc(N5CCNCC5)cc(F)c4C3)sc2n1 (single isomer, unassigned) [Example 11-11] | + (>2 μM)
20 | Cc1ccc2c(N)c(C(=O)N[C@@H]3CCc4cc(N5CCNCC5)cc(F)c4C3)sc2n1 (single isomer, unassigned) [Example 11-12] | ++ (0.2-2 μM)
21 | Cc1cnc2c(N)c(C(=O)N[C@H]3CCc4cc(N5CC6CCC(C5)N6)cc(F)c4C3)sc2n1 (single isomer, unassigned) [Example 11-13] | + (>2 μM)
22 | Cc1cnc2c(N)c(C(=O)N[C@@H]3CCc4cc(N5CC6CCC(C5)N6)cc(F)c4C3)sc2n1 (single isomer, unassigned) [Example 11-14] | +++ (0.05-0.2 μM)
23 | Cc1ccc2c(N)c(C(=O)N[C@@H]3COc4cc(N5CCNCC5)ccc4[C@@H]3C)sc2n1 (single isomer, unassigned) [Example 11-18] | + (>2 μM)
24 | CCn1ccc2cc(C(=O)N[C@@H]3CCc4cc(N5CC6CCC(C5)N6)ccc4C3)nnc21 (single isomer, unassigned) [Example 11-23] | + (>2 μM)
25 | CCn1ccc2cc(C(=O)N[C@H]3CCc4cc(N5CC6CCC(C5)N6)ccc4C3)nnc21 (single isomer, unassigned) [Example 11-24] | + (>2 μM)

Same assay, conditions: Ubiquitin-Rhodamine 110 assay, format Example A-1(b)

Row | SMILES | USP28 A-1(b) IC50 range
26 | Cc1ccc2c(N)c(C(=O)N[C@H]3CCc4cc(N5C6CNCC5C6)ccc4C3)sc2n1 (single isomer, unassigned) [Example 11-35] | ++ (0.2-2 μM)
27 | Cc1ccc2c(N)c(C(=O)N[C@@H]3CCc4cc(N5C6CNCC5C6)ccc4C3)sc2n1 (single isomer, unassigned) [Example 11-36] | ++ (0.2-2 μM)
28 | Cc1nc2sc(C(=O)N[C@H]3CCc4cc(N5CC6CCC(C5)N6)ccc4C3)c(N)c2s1 (single isomer, unassigned) [Example 12-1] | + (>2 μM)
29 | Cc1ccc2c(N)c(C(=O)N[C@H]3COc4c(F)c(N5CC6CCC(C5)N6)cc(F)c4C3)sc2n1 (single isomer, unassigned) [Example 13-1] | ++++ (0.001-0.05 μM)
30 | Cc1ccc2c(N)c(C(=O)N[C@@H]3COc4c(F)c(N5CC6CCC(C5)N6)cc(F)c4C3)sc2n1 (single isomer, unassigned) [Example 13-2] | + (>2 μM)
31 | Cc1ccc2c(N)c(C(=O)N[C@@H]3COc4cc(N5CCNCC5)c(Cl)cc4C3)sc2n1 (single isomer, unassigned) [Example 13-6] | +++ (0.05-0.2 μM)
32 | Cc1ccc2c(N)c(C(=O)N[C@@H]3CCc4cc(N5CCNCC5)cnc4C3)sc2n1 (single isomer, unassigned) [Example 15-1] | + (>2 μM)
33 | Cc1ccc2c(N)c(C(=O)N[C@H]3CCc4cc(N5CCNCC5)cnc4C3)sc2n1 (single isomer, unassigned) [Example 15-2] | + (>2 μM)
34 | Cc1ccc2c(N)c(C(=O)N[C@@H]3CCc4c(ccc(N5CC6CCC(C5)N6)c4F)C3)sc2n1 (single isomer, unassigned) [Example 21-1] | ++ (0.2-2 μM)
35 | Cc1ccc2c(N)c(C(=O)N[C@H]3CCc4c(ccc(N5CC6CCC(C5)N6)c4F)C3)sc2n1 (single isomer, unassigned) [Example 21-2] | ++ (0.2-2 μM)
36 | Cc1ccc2c(N)c(C(=O)N[C@@H]3CCc4cc(N5CC6CCC(C5)N6)c(F)cc4C3)sc2n1 (single isomer, unassigned) [Example 21-3] | ++++ (0.001-0.05 μM)
37 | Cc1ccc2c(N)c(C(=O)N[C@H]3CCc4cc(N5CC6CCC(C5)N6)c(F)cc4C3)sc2n1 (single isomer, unassigned) [Example 21-4] | ++ (0.2-2 μM)
38 | Cc1ccc2c(N)c(C(=O)N[C@@H]3CCc4c(ccc(N5CCNCC5)c4F)C3)sc2n1 (single isomer, unassigned) [Example 21-5] | ++++ (0.001-0.05 μM)
39 | Cc1ccc2c(N)c(C(=O)N[C@H]3CCc4c(ccc(N5CCNCC5)c4F)C3)sc2n1 (single isomer, unassigned) [Example 21-6] | ++ (0.2-2 μM)
40 | Cc1ccc2c(N)c(C(=O)N[C@@H]3CCc4cc(N5CCNCC5)c(F)cc4C3)sc2n1 (single isomer, unassigned) [Example 21-7] | +++ (0.05-0.2 μM)
41 | Cc1ccc2c(N)c(C(=O)N[C@H]3CCc4cc(N5CCNCC5)c(F)cc4C3)sc2n1 (single isomer, unassigned) [Example 21-8] | + (>2 μM)
